Literature values as cited in patent US10487097B2, “4,6-di-(O-thiophosphate)-inositol-1,2,3,5-tetra-O-sulfate for C. difficile infection” (priority 2015, dated 2019).

Conditions: colon lumen, background statement

O=P(O)(O)O[C@H]1[C@H](OP(=O)(O)O)[C@@H](OP(=O)(O)O)[C@H](OP(=O)(O)O)[C@@H](OP(=O)(O)O)[C@H]1OP(=O)(O)O [IP6, inositol hexakisphosphate]
precipitation due to high calcium concentration: precipitates
